Positions of bridges follow the written chain, without caps; N, C: chain ends. Residues, ends and D or L forms follow the SMILES beside them.

The assay can be described thus: Inhibition of the intrinsic peri-cellular uPA in mouse CT26 cells assessed as reduction in cell invasion measured every hour by transwell assay.
The IC50 is the midpoint of a concentration-inhibition curve. `CC[C@H](C)[C@@H]1NC(=O)[C@H](Cc2ccc(O)cc2)NC(=O)[C@H](CCCNC(=N)N)NC(=O)[C@H](CO)NC(=O)[C@H](Cc2ccc(O)cc2)NC(=O)[C@H](C)NC(=O)[C@@H]2CCCN2C(=O)[C@@H](N)CSSC[C@@H](C(=O)O)NC(=O)CNC1=O` (H-CPAYSRYIGC-OH; disulfide 1-10): the IC50 is 3.28 µM. In the case of `CC[C@H](C)[C@@H]1NC(=O)[C@H](Cc2ccc(O)cc2)NC(=O)[C@H](CCCNC(=N)N)NC(=O)[C@H](CO)NC(=O)[C@H](Cc2ccc(O)cc2)NC(=O)[C@H](C)NC(=O)[C@@H]2CCCN2C(=O)[C@@H](NC(C)=O)CSSC[C@@H](C(N)=O)NC(=O)CNC1=O` (Ac-CPAYSRYIGC-NH2; disulfide 1-10) it was 5.02 µM. As for `CC(=O)N[C@H]1CSSC[C@@H](C(N)=O)NC(=O)[C@H](CC(=O)O)NC(=O)[C@H](CC(C)C)NC(=O)[C@H](Cc2ccc(O)cc2)NC(=O)[C@H](CCCNC(=N)N)NC(=O)[C@H](CO)NC(=O)[C@H](Cc2ccc(O)cc2)NC(=O)[C@H](C)NC(=O)[C@@H]2CCCN2C1=O` (Ac-CPAYSRYLDC-NH2; disulfide 1-10), the IC50 came out at 39.4 µM.

(Values after BindingDB's records for doi:10.1021/acs.jmedchem.8b01908 (Chinese Academy of Sciences, 2019).)
